Test results: patent publication US20070036775A1 (priority 2001, published 2007)
Peptide text beside a SMILES is read from it. * marks the point of attachment. Cbz = O=C(OCc1ccccc1)*; CH2F = FC*

B1: TRAIL: cytokine, Tumor Necrosis Factor-Related Apoptosis-Inducing Ligand, human recombinant (protein, UniProt P50591 1-281, looked up)
Tumor necrosis factor ligand …: MAMMEVQGGPSLGQTCVLIVIFTVLLQSLCVAVTYVYFTNELKQMQDKYSKSGIACFLKEDDSYWDPNDEESMNSPCWQVKWQLRQLVRKMILRTSEETISTVQEKQQNISPLVRERGPQRVAAHITGTRGRSNTLSSPNSKNEKALGRKINSWESSRSGHSFLSNLHLRNGELVIHEKGFYYIYSQTYFRFQEEIKENTKNDKQMVQYIYKYTSYPDPILLMKSARNSCWSKDAEYGLYSIYQGGIFELKENDRIFVSVTNEHLIDMDHEASFFGAFLVG

Experiments:
Hela cells = assay: STS-induced apoptosis in Hela cells, Hoechst staining of apoptotic nuclei; assay type: cell-based, human; conditions: for percentages of apoptotic cells: Hela cells, one day; for effect on STS-induced apoptosis: HeLa cells transfected with Ku70 construct, 24 hours
Description: Hela cells (10^6 cells) were transfected with 0.5 μg pEGFP and 1.0 μg pCMV-2B (Vector), pCMV-2B-Ku70 (Ku70 wt), pCMV-2B-Ku701-535 (Ku701-535), or pCMV-2B-Ku70536-609 (Ku70536-609). One day following transfection, cells were treated with 200 nM STS and the number of apoptotic cells was counted as described in FIG. 1 after 24 hours of STS treatment.
Hela cells (10^6 cells) were treated with 200 nM STS in the absence (STS) or presence of z-VAD-fmk (STS+z-VAD).

HEK293T cells [1] = assay: UVC-irradiation-induced apoptosis in HEK293T cells, Hoechst staining; assay type: cell-based; conditions: for effect on UVC-irradiation-induced cell death: HEK293T cells transfected with Ku70 construct, 200 J/m^2 UVC, 24 hours
Description: HEK293T cells (10^6 cells) were transfected with 0.5 μg PEGFP and 1.0 μg pCMV-2B (Vector), pCMV-2B-Ku70 wt (Ku70 wt), or pCMV-2B-Ku70536-609 (Ku70536-609). One day following transfection, cells were exposed to 200 J/m^2 of UVC-irradiation. After 24 hours, apoptotic cells were counted as described in FIG. 1.
One day following transfection, except in the control group (Control), cells were exposed to UVC-irradiation in the absence (UV or UV+Ku70) or the presence of 50 uM z-VAD-fmk (UV+z-VAD).
HEK293T cells, HeLa cells, and mouse embryonic fibroblasts (MEF) were cultured in DMEM supplemented with 10% fetal bovine serum (FBS).

Bax [2] = target: T1, Bax (Homo sapiens, UniProt Q07812); assay: Co-immunoprecipitation of Flag-tagged Ku70 constructs and Bax; assay type: binding; conditions: HEK293T cells, Flag-tagged constructs, 50 uM z-VAD-fmk, Chaps-based buffer
T1 construct: expressed in transfected cells; host or cells: HEK293T
T1 sequence (Q07812 whole entry): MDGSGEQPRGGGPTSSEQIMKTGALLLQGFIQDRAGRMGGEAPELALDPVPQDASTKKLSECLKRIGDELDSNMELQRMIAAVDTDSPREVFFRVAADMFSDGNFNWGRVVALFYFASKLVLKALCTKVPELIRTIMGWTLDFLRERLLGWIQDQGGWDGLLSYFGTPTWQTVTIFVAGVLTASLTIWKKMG
Description: Interaction of Ku70 and Bax. […] (FIG. 4D) Co-immunoprecipitation of Flag-tagged-Ku70 and endogenous Bax. HEK293T cells (10^6 cells) were co-transfected with 1.0 μg pcDNA3-Bax and 1.0 μg pCMV-2B-control vector (Flag-tagged firefly luciferase), pCMV-2B-Ku70 wt (Flag-Ku70 wt), pCMV-2B-Ku701-535 (Flag-Ku701-535), pCMV-2B-Ku70496-609 (Flag-Ku70496-609) or pCMV-2B-Ku70536-609 (Flag-Ku70536-609) in the presence of 50 μM z-VAD-fmk. Co-immunoprecipitation was performed as described in FIG. 4C, and Western blot of Bax was done with anti-human Bax polyclonal antibody.
Immunoprecipitation was performed as follows according to the previous methods (Hsu and Youle, 1998, Matsuyama, 1998a). After precleaning of 600 ul of the sample with 50 ul of Protein G-Sepharose at 4° C. for 1 hour, immunoprecipitations were performed by incubating 200 ul of lysates with 20 ul of Protein G-Sepharose preabsorbed with 2 ug of anti-Bax polyclonal antibody or 2 ug of anti-Ku70 monoclonal antibody at 4° C. for 2 hours. After extensive washing in the buffer, beads were boiled in 40 ul of Laemmli buffer and 20 ul of the eluted proteins were subjected to SDS-PAGE immunoblot analysis.

HEK293T cells [3] = assay: Bax-induced apoptosis in HEK293T cells (pcDNA3-Bax transfection); assay type: cell-based; conditions: HEK293T cells co-transfected with pcDNA3-Bax and Ku70 construct, 24 hours
Description: 10^6 cells were transfected with 1.0 μg of pcDNA3 (Control) or pcDNA3-Bax (Bax) together with 0.5, 1.0, or 2.0 μg of pCMV-2B-Ku70 wt (Ku70 wt) or pcDNA3-Myc-XIAP (XIAP). In “Bax+Vector” group, 1.0 μg pcDNA3-Bax and 2 ug of pCMV-2B were used, respectively (Control and Bax+Vector). All the cells were also co-transfected with 0.5 μg pEGFP for the marking of transfected cells. Apoptosis in the transfected cells was analyzed 24 hours following transfection with Hoechst dye staining of the nucleus as described in Experimental Procedure. […] 10^6 cells were transfected with 1.0 μg pcDNA3-Bax and 2.0 μg pCMV-2B (Bax+Vector), pCMV-2B-Ku70 wt (Bax+Ku70 wt), or pcDNA3-Myc-XIAP (Bax+XIAP). […] Apoptosis in the transfected cells was analyzed at 24 hours (Control) or the indicated time points following transfection. […] After 24 hours, apoptotic cells were counted as described in FIG. 1B. […] The number of apoptotic cells was determined as described in FIG. 1B. […] Apoptosis in the transfected cells was analyzed at the indicated periods following transfection as described in FIG. 1C.
HEK293T cells, HeLa cells, and mouse embryonic fibroblasts (MEF) were cultured in DMEM supplemented with 10% fetal bovine serum (FBS). […] Apoptosis in the transfected cells were analyzed as follows: Plasmid encoding EGFP (0.5 ug of pEGFP) was transfected to all the groups to mark the transfected cells. […]

Du145 cells = assay: Apoptosis in Bax-deficient Du145 cells; assay type: cell-based, human; conditions: Du145, 200 J/m^2 UVC, 24 hours
Description: Du145 cells (10^6 cells) were transfected with 0.5 μg PEGFP and 1.0 μg pCMV-2B (Vector), pcDNA3-Myc-XIAP (XIAP), pCMV-2B-Ku70 wt (Ku70 wt), or pCMV-2B-Ku70536-609 (Ku70536-609). One day following transfection, cells were exposed to 200 J/m^2 of UVC-irradiation. After 24 hours, apoptotic cells were counted as described in FIG. 1.
Apoptosis was induced by pcDNA3-human Bax (Bax-encoding plasmid)-transfection, Staurosporin (STS)-treatment, UVC-irradiation, anti-Fas-antibody-treatment (clone CH11), and human recombinant TRAIL-treatment (BD-Pharmingen). The amount of the plasmids, the concentration of STS, Fas-antibody, and TRAIL, and the energy of UVC-irradiation are as described in the figure legends. Apoptosis in the transfected cells were analyzed as follows: Plasmid encoding EGFP (0.5 ug of pEGFP) was transfected to all the groups to mark the transfected cells. One day following transfection of the plasmids listed in the figure legends or treatment of the cells with staurosporin (STS) or UVC-irradiation, cells were stained with Hoechst dye and cells with apoptotic nuclei were counted in GFP expressing cells under fluorescent microscope as previously reported (Wei, et al., 2001). Each point in the figures showing percentages of apoptosis represents the mean±SE of three experiments.

Bax [4] = assay: Subcellular localization / mitochondrial translocation of Bax (fractionation, Western blot, confocal); assay type: cell-based; conditions: HeLa cells 200 nM STS; HEK293T cells UVC 200 J/m^2
Description: FIG. 6A: Subcellular localization of Bax and Ku70. HeLa cells (10^7 cells) were transfected with 10 μg pCMV-2B (Control, STS,) or pCMV-2B-Ku70 (STS+Ku70). One day following transfection, except in the control group (Control), cells were treated by 200 nM STS (STS). One day after STS-treatment, cells were collected and subcellular fractionation was performed as described in Experimental Procedure. The levels of Ku70 (Ku70) and Bax (Bax) in each fraction were analyzed by Western blotting as described in Experimental Procedure. FoF1 ATP synthase subunit α (F1α) and PCNA (PCNA) were used as markers for mitochondrial and nuclear fractions, respectively. HM stands for “Heavy Membrane” fraction containing mitochondria. […] Cytosol fractions (20 μg protein) were separated by SDS-PAGE and analyzed by Western blotting for Ku70 (anti-Ku70 monoclonal antibody, BD-Pharmingen) and β-Tubulin (anti-β-Tubulin monoclonal antibody, BD-Pharmingen) levels. […] MEFs derived from wild-type (Ku70+/+) or Ku70-knockout mice (Ku70−/−) were analyzed as described in FIG. 6A. […] MEFs derived from wild-type (Ku70+/+) or Ku70-deficient (Ku70−/−) mice were treated with STS (200 nM) and cells were analyzed at indicated various periods after treatment as described in FIG. 6A. […]

Bax [5] = assay: Mitochondrial translocation of Bax after TRAIL treatment in T98-G and Hep3B cells; assay type: cell-based, human; conditions: T98G and Hep3B, 100 ng/ml TRAIL, 24 hours
Description: FIG. 14. […] One day following the transfection, cells were treated by etoposide (20 uM). One day after the addition of etoposide into the culture, cells were collected and subcellular fractionation was performed as described in FIG. 9. […] Bax leveles in the samples of the fractions of the cytosol (“Cytosol”) and the heavy membrane (“HM”) were analyzed by Western blotting (middle and lower panels). […] All cells were also co-transfected with the plasmid encoding Green Fluorescent Protein (GFP) (pEGFP plasmid) for the detection of the transfected cells by GFP expression. One day following the transfection, etoposide (20 uM), cisplatin (20 uM), doxorubicin (1 uM), or TRAIL (100 ng/ml) was added to the culture, and cells were culture for 48 hours. The percentages of apoptotic cells were counted in GFP-expressing cells by staining the nucleus with Hochst-dye on day 1 and 2 of the culture. […] T98-G (glioma cell line) and Hep3B (hepatoma cell line) cells were cultured for 24 hours in the absence (“Control”) or the presence (“TRAIL”) of 100 ng/ml TRAIL. After the culture, cells were collected and subcellular fractionation was performed as described in FIG. 2. The samples of the cytosol fraction (20 ug protein) (“Cytosol”) and the equivalent proportion of heavy membrane fraction (“HM”) were subjected to Western analysis of Bax.

| Molecule | binding to Bax (co-immunoprecipitation) (Bax [2]) | effect on Bax-induced apoptosis (HEK293T cells [3]) | effect on STS-induced apoptosis (Hela cells; 200 nM STS) | effect on UVC-irradiation-induced cell death (HEK293T cells [1]) | further results |
| --- | --- | --- | --- | --- | --- |
| COC(=O)C[C@H](NC(=O)[C@H](C)NC(=O)[C@@H](NC(=O)OCc1ccccc1)C(C)C)C(=O)CF [z-VAD-fmk, reference compound] (Cbz-Val-Ala-Asp(OMe)-CH2F) |  |  |  |  | percentages of apoptotic cells (Hela cells; 200 nM STS in presence of z-VAD-fmk): 11±3%; percentages of apoptotic cells (HEK293T cells [1]; HEK293T cells, UVC 200 J/m^2 in presence of 50 uM z-VAD-fmk, one day, UV alone 42±5%): 9±1% |
| Ku70496-609: Ku70 mutant construct encoding amino acids 496-609 of Ku70, lacking Ku80-binding domain | bound to Bax | retained the cytoprotective activities | retained the cytoprotective activities | retained the cytoprotective activities |  |
| Ku70536-609: Ku70 mutant expressing only the C-terminal 74 amino acids of Ku70 | bound to Bax | sufficient to block | sufficient to block | sufficient to block | effect on UVC-irradiation-induced cell death in Bax-deficient cells (Du145 cells): did not rescue Bax-deficient cells from UVC-irradiation-induced cell death; mitochondrial translocation of Bax induced by STS-treatment or UVC-irradiation (Bax [4]): inhibited Bax relocalization induced by UVC-irradiation |
| CN[C@@H]1C[C@H]2O[C@@](C)([C@@H]1OC)n1c3ccccc3c3c4c(c5c6ccccc6n2c5c31)C(=O)NC4 [STS, Staurosporine, reference compound] |  |  |  |  | percentages of apoptotic cells (Hela cells; 200 nM STS, control 3±1%): 49±4% |
| B1 |  |  |  |  | mitochondrial translocation of Bax (Bax [5]): did not induce the mitochondrial translocation of Bax |
